These results are taken from ChEMBL document CHEMBL5370692, “Synthesis and Evaluation of Small Molecule Inhibitors of the Androgen Receptor N-Terminal Domain” (ACS Med Chem Lett, 2023).

In this test the target is T1, Androgen receptor (Homo sapiens, UniProt P10275).
T1 sequence (P10275 whole entry): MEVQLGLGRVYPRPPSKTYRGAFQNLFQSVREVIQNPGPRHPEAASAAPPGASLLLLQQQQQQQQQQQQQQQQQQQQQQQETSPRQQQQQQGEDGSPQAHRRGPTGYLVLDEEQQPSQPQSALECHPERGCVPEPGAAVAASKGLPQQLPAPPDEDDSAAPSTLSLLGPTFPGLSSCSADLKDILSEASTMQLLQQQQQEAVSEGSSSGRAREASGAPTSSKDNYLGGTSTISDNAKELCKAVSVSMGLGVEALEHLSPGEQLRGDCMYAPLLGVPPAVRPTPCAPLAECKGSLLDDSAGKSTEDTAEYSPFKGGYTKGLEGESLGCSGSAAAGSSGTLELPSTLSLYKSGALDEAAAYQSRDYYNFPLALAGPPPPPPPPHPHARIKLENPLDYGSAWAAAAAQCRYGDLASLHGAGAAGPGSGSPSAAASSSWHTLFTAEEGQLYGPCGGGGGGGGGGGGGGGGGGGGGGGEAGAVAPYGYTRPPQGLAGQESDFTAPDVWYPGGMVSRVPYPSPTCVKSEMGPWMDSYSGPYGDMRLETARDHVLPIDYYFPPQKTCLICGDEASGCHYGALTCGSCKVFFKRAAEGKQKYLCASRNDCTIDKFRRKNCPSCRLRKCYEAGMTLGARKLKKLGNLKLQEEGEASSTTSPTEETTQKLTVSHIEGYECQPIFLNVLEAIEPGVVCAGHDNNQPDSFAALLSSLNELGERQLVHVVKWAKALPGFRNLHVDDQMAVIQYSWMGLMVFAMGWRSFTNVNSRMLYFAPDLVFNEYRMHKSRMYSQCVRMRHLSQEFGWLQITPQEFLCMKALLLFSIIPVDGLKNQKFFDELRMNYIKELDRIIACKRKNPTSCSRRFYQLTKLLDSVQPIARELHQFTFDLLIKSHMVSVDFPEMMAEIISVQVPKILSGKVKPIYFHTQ
Kind of test: Inhibition of androgen receptor in human VCaP cells expressing GRE-2-TATA-Luc co-expressing firefly luciferase incubated for 24 hrs in presence of DHT by luciferase reporter gene assay. The test is classed as cell-based. A general note: In a reporter assay the amount or activity of a reporter protein is the signal.

By IC50 is commonly meant the point on the concentration scale where inhibition reaches its midpoint. For the compound `CSc1ccc(C(N)=O)cc1-c1ccc2cnccc2c1`, the IC50 worked out at 800 nM.
